Reference: publication PMC8228174, “In Vitro Characterization of Guanylyl Cyclase BdPepR2 from Brachypodium distachyon Identified through a Motif-Based Approach” (International Journal of Molecular Sciences, 2021)

Experiments:
[1] = biological target: T1, BdPepR2 (Brachypodium distachyon, UniProt A0A2K2CYK2); experiment: Kinase-Glo plus luminescent kinase assay; format: biochemical; settings: 1 µM cGMP suppresses kinase activity; 100 μM ATP, Histone Type III-S, 5 mM MgCl2 and 5 mM MnCl2, 1 mM DTT, 25 mM Tris/HCl pH 7.5, 30 °C; extent only in figure
T1 construct: gene LOC100834510; full length 1146 aa; pGEX-6P-2, E. coli BL21(DE3)pLysS; GST tag cut off with PreScission protease
Target sequence in this assay (A0A2K2CYK2 entry or part of it M1083R): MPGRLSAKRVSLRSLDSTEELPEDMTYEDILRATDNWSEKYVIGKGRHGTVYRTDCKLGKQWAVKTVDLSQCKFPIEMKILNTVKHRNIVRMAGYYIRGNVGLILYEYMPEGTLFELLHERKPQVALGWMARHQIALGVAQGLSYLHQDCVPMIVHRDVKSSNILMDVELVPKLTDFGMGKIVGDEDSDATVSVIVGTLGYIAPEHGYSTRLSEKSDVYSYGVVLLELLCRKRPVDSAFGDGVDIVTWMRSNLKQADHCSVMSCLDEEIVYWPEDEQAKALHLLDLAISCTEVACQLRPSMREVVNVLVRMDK

[2] = biological target: T1, BdPepR2; experiment: Kinase-Glo plus luminescent kinase assay; format: biochemical; settings: 1 µM cGMP suppresses kinase activity; 100 μM ATP, Histone Type III-S, 5 mM MgCl2 and 5 mM MnCl2, 1 mM DTT, 25 mM Tris/HCl pH 7.5, 30 °C; extent only in figure; remark: listed apart in the source
[3] = biological target: T2, BdPepR2 (Brachypodium distachyon, UniProt A0A2K2CYK2, M1083A); experiment: Kinase-Glo plus luminescent kinase assay; format: biochemical; settings: 1 µM cGMP suppresses kinase activity; 100 μM ATP, Histone Type III-S, 5 mM MgCl2 and 5 mM MnCl2, 1 mM DTT, 25 mM Tris/HCl pH 7.5, 30 °C; extent only in figure
T2 construct: gene LOC100834510; full length 1146 aa; pGEX-6P-2, E. coli BL21(DE3)pLysS; GST tag cut off with PreScission protease

[4] = substrate: Nc1nc2c(ncn2[C@@H]2O[C@H](COP(=O)(O)OP(=O)(O)OP(=O)(O)O)[C@@H](O)[C@H]2O)c(=O)[nH]1; experiment: guanylyl cyclase assay, cGMP by LC-MS/MS; format: biochemical, Brachypodium distachyon; settings: 5 mM MnCl2, 50 mM Tris/HCl pH 7.5, 30 °C, 15 min, GTP 0.5-2 mM, GC centre

T2 sequence (A0A2K2CYK2 entry or part of it M1083A): as the sequence (A0A2K2CYK2 entry or part of it M1083R) above, with R233A counted along it

## Nc1nc2c(ncn2[C@@H]2O[C@@H]3COP(=O)(O)O[C@H]3[C@H]2O)c(=O)[nH]1 [cGMP]
[1]
  Kinase-Glo plus luminescent kinase assay: kinase activity of BdPepR2, BdPepR2M1066A, and BdPepR2M1066R is suppressed by GTP and cGMP
[2]
  Kinase-Glo plus luminescent kinase assay: only the product of GC activity, cGMP, statistically significantly suppress kinase activity of BdPepR2
[3]
  Kinase-Glo plus luminescent kinase assay: kinase activity of BdPepR2, BdPepR2M1066A, and BdPepR2M1066R is suppressed by GTP and cGMP

B1: BdPepR2 (Brachypodium distachyon) (protein)
chain: MPGRLSAKRVSLRSLDSTEELPEDMTYEDILRATDNWSEKYVIGKGRHGTVYRTDCKLGKQWAVKTVDLSQCKFPIEMKILNTVKHRNIVRMAGYYIRGNVGLILYEYMPEGTLFELLHERKPQVALGWMARHQIALGVAQGLSYLHQDCVPMIVHRDVKSSNILMDVELVPKLTDFGMGKIVGDEDSDATVSVIVGTLGYIAPEHGYSTRLSEKSDVYSYGVVLLELLCRKMPVDSAFGDGVDIVTWMRSNLKQADHCSVMSCLDEEIVYWPEDEQAKALHLLDLAISCTEVACQLRPSMREVVNVLVRMDK
notes: full length 1146 aa; pGEX-6P-2, E. coli BL21(DE3)pLysS; GST tag cut off with PreScission protease
[4]
  Km: 1189 µM
